Assay results as given in publication PMC8692498, “Synthesis and multifaceted pharmacological activity of novel quinazoline NHE-1 inhibitors” (Scientific Reports, 2021).
“Also recorded” adds a separate entry of the source.

Assays:
[1] = Solubility under the conditions of the platelet aggregation assay; type: physicochemical; conditions: antiplatelet assay
Experimental: Test compounds were dissolved in 99% DMSO (stock concentration 40 mM) and stored at –25 °C. If sediment or opalescence was detected, 5% Tween 20 (Merck) was added. Serial dilutions were prepared ex tempore in a media suitable for the particular study. Final concentration in samples: DMSO <0.25%, Tween 20 <0.025% (were added to control samples in equal concentrations).
Functional activity of platelets was determined on a two-channel laser analyzer of platelet aggregation "BIOLA-220 LA" (Russia) as described previously. The experiments were carried out on 6 male rabbits weighing 3.5–4 kg. To prepare platelet-rich plasma (PRP) venous blood was taken from the ear marginal vein of a rabbit, stabilized with a 3.8% sodium citrate solution in a ratio of 9:1 and centrifuged for 10 min at 1500 rpm. PRP (300 μL) and a solution of the test compound at a concentration of 100 μM were sequentially introduced into the cell of the aggregometer. The samples were incubated in thermostated cells of the aggregometer at 37 °C for 5 min. To induce aggregation adenosine-5-diphosphoric acid (ADP, Sigma, USA) at a final concentration of 5 μM, was added to the cuvette. Acetylsalicylic acid (Shandong Xinhua Pharmaceutical Co., Ltd., China) was used as a reference drug. Experiments were run in 5 independent replicates.

[2] = test system: intraocular pressure; assay: Intraocular pressure studies in outbred rats (TonoVet); type: in vivo
Experimental: The experiments were carried out on 75 adult outbred rats of both sexes, which were kept in standard cages at a temperature of 25 °C and a standard light regime. Animals were randomly assigned to the control and experimental groups (n = 5). Before the start of the experiment, the rats had free access to food and water. Intraocular pressure (IOP) was measured with a TonoVet device (Finland)[44] which measures IOP with a short touch of a small disposable tip in the center of the cornea, no corneal anesthesia is required. The study was carried out according to the published method. One drop (50 μl) of a test 0.4% solution of the compound was instilled into the right eye, and deionized water was added to the left eye. IOP was measured in both eyes. The left eye, in turn, serves to assess the possible systemic exposure of the test compounds. […] IOP-lowering activity was assessed as the maximum decrease in IOP from the initial values. At 9:00 AM, baseline IOP was measured in animals of all groups. Experiments were run in 5 independent replicates.

[3] = biological target: T1, NHE-1 (Oryctolagus cuniculus, UniProt P23791); assay: NHE-1 inhibition assay on rabbit platelets (platelet shape change after acidification with sodium propionate, laser aggregometer); type: cell-based
T1 construct: endogenous in cells; host or cells: rabbit platelets in platelet-rich plasma (male rabbits)
Experimental: Evaluation of NHE-1 inhibition was carried out on rabbit platelets by the known method[39],[40]. The experiments were carried out on 15 male rabbits weighing 3.0-4.0 kg. Platelet-rich plasma (PRP) was obtained by centrifuging blood with 3.8% sodium citrate (1:10) at 1000 rpm for 12 min (Multi centrifuge CM 6M, Latvia). Platelet shapeshifting due to acidification was followed with a laser aggregometer BIOLA-220 LA (Russia). Test compounds (10 μl, 10 nM final concentration) were added to 200 μl of PRP 5 min in a cuvette before the addition of sodium propionate solution, incubated with constant stirring using a magnetic stirrer (800 rpm, 37 °C). To control samples for NHE-1 activation, a buffer solution containing sodium propionate was added to 200 μL of PRP (600 μL, 135 mM sodium propionate, 20 mM HEPES, 1 mM CaCI2, 1 mM MgCI2, 10 mM glucose; pH 6.7). The change in light transmission at pH 7.4, 37 °C was monitored in a Krebs solution (600 μL, 120 mM NaCl, 4.8 mM KCl, 1.2 mM KH2PO4, 2.5 mM MgSO4, 25 mM NaHCO3, 2.6 mM CaCl2, 5.4 mM glucose; pH 7.4). Test compounds were added to a final concentration of 10 nM to the cuvette into 200 μl of PRP 5 min before adding the sodium propionate solution, incubated with constant stirring using a magnetic stirrer (800 rpm, 37 °C). NHE-1 inhibitors zoniporide, rimeporide, amiloride were used as reference drugs. Assays were run in 6 independent series.

[4] = Cytotoxicity study (LDH activity in the medium) in peritoneal macrophages; type: cell-based; conditions: male, C57BL/6J, mouse, primary peritoneal macrophages; murine peritoneal macrophages, LDH
Experimental: (§1) Peritoneal macrophages (PM) were isolated from the peritoneal exudate of 30 male C57bl/6j mice. To accumulate PM, 1 ml of 3% peptone solution was injected intraperitoneally. After 3 days the mice were euthanized by cervical dislocation. Cells of peritoneal exudate were obtained by aseptically washing the abdominal cavity with 5 ml of sterile Hanks’s solution (+ 4-6 °C) without calcium and magnesium ions. The total number and viability of cells were assessed in a Goryaev counting chamber (Russia) with a 0.4% trypan blue staining (Sigma-Aldrich, USA). The cell concentration was adjusted to 1.0×10^6 cells/ml in DMEM (Gibco) supplemented with 2 mM L-glutamine (Gibco), 10% heat-inactivated fetal bovine serum (BioClot, Germany), 100 U/ml penicillin and […] streptomycin (Gibco) and plated 200 μl/well in 96-well transparent plates (SPL Life Sciences Co., Ltd., Korea). It was left for 2 h at 37°C in a humidified atmosphere with 5% CO2, after which the wells were washed to remove non-adherent cells. After 24 hours of incubation, 20 μl of the supernatant was removed and 20 μl of solutions of test compounds were added 30 min before E. coli O127:B8 LPS (100 ng/ml final concentration). Experiments were run in 3 independent replicates.
(§2) The activity of lactate dehydrogenase (LDH) in a cell culture medium served as a marker of membrane permeability and cell death. Aliquotes of supernatants were taken after 24 h of inoculation with test compounds, mixed with 250 μl of […] NADH solution in 54 mM phosphate buffered saline (pH 7.5). Then, 25 μl of a 6.48 mM pyruvate solution was added to the mixture. The optical density was followed at a wavelength of 340 nm for 20 min. Conversion of optical density into cell viability was carried out according to a standard curve (DMSO-treated cells as 100% and 0.01% Triton X-100-treated cells as 0% viable cells).

[5] = test system: primary peritoneal macrophages of C57BL/6J mice; assay: as above; type: cell-based; conditions: 100 μM, peritoneal macrophages
Experimental: as §1, §2

[6] = test system: ICR mice; assay: Tail suspension test (antidepressant activity); type: in vivo; conditions: intragastrically 30 min before test, dose equimolar to 2.6 mg/kg amiloride
Experimental: The experiment was carried out on 36 male ICR mice weighing 22-25 g, divided into groups of 6 animals each under room lighting (300 lux). […] In experiments, test substances were administered intragastrically 30 min before the start of the test. Experimental groups received test compounds in an equimolar dose to the comparison drug amiloride. Animals of the remaining groups were treated with 2.6 mg/kg amiloride, 10 mg/kg amitriptyline, or 8 mg/kg imipramine. Distilled water was administered to the control group. The time of immobilization of the animals was recorded.

T1 sequence (P23791 whole entry): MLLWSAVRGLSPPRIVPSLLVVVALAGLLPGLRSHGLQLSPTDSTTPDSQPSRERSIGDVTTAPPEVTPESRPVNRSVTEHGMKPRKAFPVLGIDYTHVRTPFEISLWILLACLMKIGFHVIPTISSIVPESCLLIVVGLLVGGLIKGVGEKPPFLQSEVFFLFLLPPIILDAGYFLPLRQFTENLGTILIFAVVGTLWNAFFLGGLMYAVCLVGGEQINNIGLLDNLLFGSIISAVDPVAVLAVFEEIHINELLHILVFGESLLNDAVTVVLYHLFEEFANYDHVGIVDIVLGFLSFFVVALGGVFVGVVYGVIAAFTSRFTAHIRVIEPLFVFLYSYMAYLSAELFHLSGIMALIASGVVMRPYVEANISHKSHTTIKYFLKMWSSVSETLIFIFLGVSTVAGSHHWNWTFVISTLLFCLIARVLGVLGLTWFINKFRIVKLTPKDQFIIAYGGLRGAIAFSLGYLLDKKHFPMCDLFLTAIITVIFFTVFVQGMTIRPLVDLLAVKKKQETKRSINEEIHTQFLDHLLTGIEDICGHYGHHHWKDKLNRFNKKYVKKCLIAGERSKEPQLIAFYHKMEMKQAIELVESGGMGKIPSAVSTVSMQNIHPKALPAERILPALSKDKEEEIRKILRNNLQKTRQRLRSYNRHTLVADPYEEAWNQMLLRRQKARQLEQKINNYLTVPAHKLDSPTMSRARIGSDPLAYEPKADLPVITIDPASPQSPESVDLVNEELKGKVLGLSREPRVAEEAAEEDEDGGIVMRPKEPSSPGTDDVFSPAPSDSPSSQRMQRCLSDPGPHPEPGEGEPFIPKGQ

For `Cn1c(=O)n(Cc2nnc(N)[nH]2)c(=O)c2ccccc21` [Compound 3e, 3-[(5-Amino-4H-1,2,4-triazol-3-yl)methyl]-1-methylquinazoline-2,4(1H,3H)-dione], the “solubility under assay conditions” value [1] was “insoluble under assay conditions”, the IOP-lowering effect size ([2]; compared with zoniporide and timolol) was “negligible” and the IOP-lowering activity ([2]; one drop (50 μl) of 0.4% solution instilled) was “statistically significant activity”. The inhibition at 0.01 µM ([3]; 10 nM, rabbit platelet-rich plasma, decimal commas, read-out: NHE-1 inhibition at 10 nM, m ± SD, n = 6 (%)) was 57.8%, the “NHE-1 inhibitory activity (in words)” value ([3]; compared with reference drugs) was “more potent and comparable to zoniporide” and the CC50 at 24 h [4] was 138 µM. The “effect on cell viability” value [5] was “absence of a statistically significant effect on cell viability” and the antidepressant activity [6] was “antidepressant activity similar to amiloride; also recorded: antidepressant activity comparable with amiloride”.
